Literature values as cited in US8802148B2, “Microparticles and method for their production” (Alrise Biosystems GmbH, priority 2002, dated 2014).
Where a name gives a salt, the structure may show the parent alone.

Conditions: at 20-25° C.

Row | SMILES | Solubility in water (w/w) [%]
1 | COC(C)=O [methyl acetate] | 22.8
2 | CCCOC=O [propyl formate] | 2.82
3 | CCOC(C)=O [ethyl acetate] | 7.43
4 | CCOC=O [ethyl formate] | 8.4
5 | CC(=O)OC(C)C [iIsopropyl acetate, isopropyl acetate] | 3.09
6 | CCCOC(C)=O [propyl acetate] | 1.67
